Measurements taken from ChEMBL document CHEMBL1201862, “PubChem BioAssay data set” (2004).
The source made the active and inactive calls.

What was measured:
Assay type in all cases: functional
[1] = target: T1, Caspase-3 (Homo sapiens, UniProt P42574);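 further: Dose-response selectivity test against caspase-3 for candidate inhibitors of sentrin-specific proteases (SENPs)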
T1 sequence (P42574 whole entry): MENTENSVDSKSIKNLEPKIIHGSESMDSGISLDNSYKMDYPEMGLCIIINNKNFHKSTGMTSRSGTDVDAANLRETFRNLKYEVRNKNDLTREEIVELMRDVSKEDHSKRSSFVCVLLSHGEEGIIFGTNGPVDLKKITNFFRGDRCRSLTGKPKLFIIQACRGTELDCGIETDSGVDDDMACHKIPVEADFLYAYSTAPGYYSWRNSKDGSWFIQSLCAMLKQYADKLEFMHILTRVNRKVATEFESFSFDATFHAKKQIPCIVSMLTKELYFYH

[2] = HEK-293T viability loss, compound-treated – cell-based, uHTS hits, cytotoxicity control for B/T-cell NF-kB inhibitor project, dose response (AID 489019);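 further: IC50 reflects cytotoxicity as loss of cell viability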
[3] = target: T2, Sentrin-specific protease 6 (Homo sapiens, UniProt Q9GZR1);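 further: Luminescence-based dose-response confirmatory assay of SENP6 inhibition, following up an ultra-high-throughput screen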
T2 sequence (Q9GZR1 whole entry): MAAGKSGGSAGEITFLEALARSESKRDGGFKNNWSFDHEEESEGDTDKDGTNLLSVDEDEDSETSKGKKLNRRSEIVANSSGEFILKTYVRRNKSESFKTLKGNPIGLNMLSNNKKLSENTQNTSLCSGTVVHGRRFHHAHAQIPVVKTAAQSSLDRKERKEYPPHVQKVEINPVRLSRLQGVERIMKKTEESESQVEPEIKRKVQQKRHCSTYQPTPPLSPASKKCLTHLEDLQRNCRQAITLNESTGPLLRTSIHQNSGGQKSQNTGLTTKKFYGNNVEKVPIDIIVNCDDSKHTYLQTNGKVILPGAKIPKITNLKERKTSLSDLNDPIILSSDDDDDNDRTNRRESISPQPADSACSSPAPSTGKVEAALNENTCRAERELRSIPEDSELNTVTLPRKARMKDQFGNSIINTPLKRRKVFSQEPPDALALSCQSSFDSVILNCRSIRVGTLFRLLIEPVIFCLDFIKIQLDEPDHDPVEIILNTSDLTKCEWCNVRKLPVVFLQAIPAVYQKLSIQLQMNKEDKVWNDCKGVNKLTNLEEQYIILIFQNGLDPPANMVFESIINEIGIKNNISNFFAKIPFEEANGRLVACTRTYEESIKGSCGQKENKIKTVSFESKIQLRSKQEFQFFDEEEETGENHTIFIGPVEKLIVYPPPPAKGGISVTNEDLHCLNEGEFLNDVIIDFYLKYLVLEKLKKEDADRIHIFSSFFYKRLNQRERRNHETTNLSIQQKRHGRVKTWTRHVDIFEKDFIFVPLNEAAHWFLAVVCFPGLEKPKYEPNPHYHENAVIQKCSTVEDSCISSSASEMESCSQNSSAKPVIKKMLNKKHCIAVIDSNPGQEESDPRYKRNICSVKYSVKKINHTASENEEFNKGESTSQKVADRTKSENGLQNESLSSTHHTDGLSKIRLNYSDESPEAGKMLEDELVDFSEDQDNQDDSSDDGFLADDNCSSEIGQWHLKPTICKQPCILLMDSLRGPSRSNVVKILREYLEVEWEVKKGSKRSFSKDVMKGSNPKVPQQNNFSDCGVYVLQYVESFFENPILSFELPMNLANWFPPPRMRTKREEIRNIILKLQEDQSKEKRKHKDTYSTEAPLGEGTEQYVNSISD

[4] = target: T3, Protein RecA (Mycobacterium tuberculosis, UniProt P9WHJ3); assay: Fluorescence Cell-Free Homogeneous Dose Retest to Identify Inhibitors of RecA-Intein Splicing Activity. [Related pubchem assays (depositor defined):AID2097, AID2223, AID489010, AID492950]
T3 sequence (P9WHJ3 whole entry): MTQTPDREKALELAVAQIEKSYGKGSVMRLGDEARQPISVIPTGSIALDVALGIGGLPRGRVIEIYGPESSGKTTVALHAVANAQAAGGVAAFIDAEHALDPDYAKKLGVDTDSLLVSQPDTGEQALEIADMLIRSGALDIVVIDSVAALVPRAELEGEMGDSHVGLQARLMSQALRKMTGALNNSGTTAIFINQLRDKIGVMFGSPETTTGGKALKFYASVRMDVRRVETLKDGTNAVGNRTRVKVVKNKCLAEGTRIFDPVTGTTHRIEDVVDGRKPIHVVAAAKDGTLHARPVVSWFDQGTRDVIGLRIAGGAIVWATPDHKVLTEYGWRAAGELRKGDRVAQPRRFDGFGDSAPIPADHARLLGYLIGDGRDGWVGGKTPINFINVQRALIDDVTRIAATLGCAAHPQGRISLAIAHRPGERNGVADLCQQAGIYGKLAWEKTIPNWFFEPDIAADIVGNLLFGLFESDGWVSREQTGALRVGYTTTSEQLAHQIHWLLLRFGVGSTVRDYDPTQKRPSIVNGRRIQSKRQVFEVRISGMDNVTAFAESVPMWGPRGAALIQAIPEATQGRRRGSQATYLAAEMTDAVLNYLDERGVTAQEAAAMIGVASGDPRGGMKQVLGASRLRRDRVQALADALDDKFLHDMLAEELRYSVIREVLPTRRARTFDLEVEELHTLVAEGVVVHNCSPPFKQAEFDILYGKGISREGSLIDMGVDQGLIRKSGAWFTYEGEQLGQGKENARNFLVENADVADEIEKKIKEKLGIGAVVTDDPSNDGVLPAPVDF

Row | Compound | IC50 [1] | IC50 [2] | IC50 [3] | EC50 [4]
1 | N#Cc1c(NC(=O)CSc2nc[nH]n2)sc2c1CCCCC2 | 45.2 µM (active) | > 80 µM (inactive) | 4 µM (active) | 
2 | COc1ccc(C(N)c2nccc3cc(OC)c(OC)cc23)cc1OC (centres undefined) |  |  |  | > 380 µM (inactive)
